Patent US7238666B2, “Method of inhibiting fibrosis with a somatostatin agonist” (Societe de Conseils de Recherches et d'Applications …, priority 1996, dated 2007)
Positions of bridges follow the written chain, without caps; N, C: chain ends. Non-standard residues stand in square brackets, D forms with d. Residues, ends and D or L forms follow the SMILES beside them.

Key:
[1] = target: human SSTR-3 (Homo sapiens, UniProt P32745); test: Somatostatin receptor binding assay, [125I-Tyr11]somatostatin-14, membranes of transfected CHO-K1 cells; settings: 0.05 nM [125I-Tyr11]somatostatin-14, 30 min at 30° C., Ki=IC50/[1+(LC/LEC)], read-out: Ki hSSTR-3
[2] = target: human SSTR-5 (Homo sapiens, UniProt P35346); test: as above; settings: 0.05 nM [125I-Tyr11]somatostatin-14, 30 min at 30° C., Ki=IC50/[1+(LC/LEC)], read-out: Ki hSSTR-5
Chain of human SSTR-5 (P35346 whole entry): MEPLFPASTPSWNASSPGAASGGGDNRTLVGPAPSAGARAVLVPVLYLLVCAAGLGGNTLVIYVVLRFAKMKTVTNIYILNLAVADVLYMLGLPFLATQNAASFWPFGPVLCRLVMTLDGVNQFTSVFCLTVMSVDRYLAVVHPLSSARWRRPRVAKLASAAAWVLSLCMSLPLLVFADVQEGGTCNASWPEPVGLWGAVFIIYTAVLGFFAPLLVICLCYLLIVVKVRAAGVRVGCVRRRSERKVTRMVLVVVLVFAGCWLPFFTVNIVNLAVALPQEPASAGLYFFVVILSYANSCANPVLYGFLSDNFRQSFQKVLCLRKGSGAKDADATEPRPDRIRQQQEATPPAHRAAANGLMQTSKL

Chain of human SSTR-3 (P32745 whole entry): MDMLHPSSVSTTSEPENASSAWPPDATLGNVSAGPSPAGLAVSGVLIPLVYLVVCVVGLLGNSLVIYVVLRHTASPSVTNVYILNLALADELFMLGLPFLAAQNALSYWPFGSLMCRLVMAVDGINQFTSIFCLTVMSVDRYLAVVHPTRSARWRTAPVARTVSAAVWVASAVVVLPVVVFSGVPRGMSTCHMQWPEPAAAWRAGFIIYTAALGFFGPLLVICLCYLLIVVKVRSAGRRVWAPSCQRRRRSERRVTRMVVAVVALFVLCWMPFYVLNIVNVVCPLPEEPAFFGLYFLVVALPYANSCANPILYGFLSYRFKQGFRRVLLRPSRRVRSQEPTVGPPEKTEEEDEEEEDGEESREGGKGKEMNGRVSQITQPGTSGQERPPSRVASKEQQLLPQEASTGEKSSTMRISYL

Ki [1]: 62 nM | Ki [2]: 0.38 nM
SMILES: C[C@@H](O)[C@@H]1NC(=O)[C@H](CCCCN)NC(=O)[C@@H](Cc2c[nH]c3ccccc23)NC(=O)[C@H](Cc2ccccc2)NC(=O)[C@H](Cc2ccccc2)NC(=O)[C@@H](N)CSSC[C@@H](C(N)=O)NC(=O)[C@H](Cc2ccccc2)NC1=O [BIM-23268, H-Cys-Phe-Phe-D-Trp-Lys-Thr-Phe-Cys-NH2] (H-CFF[dW]KTFC-NH2; disulfide 1-8)
